Results on 3 molecules are retold here after patent US20240123039A1, “DETOXIFICATION PREPARATIONS WITH REINFORCED BOOSTERS TO TREAT ALCOHOL INTOXICATION” (priority 2022, published 2024).

The conditions of data set [1]: cited from earlier work; for safety of human consumption: by mouth up to 1000 mg per dose per day; for side effects of oral intake: orally, up to or more than 1000 mg per day over many years.
Data set [2] addresses T1, alcohol dehydrogenase (ADH) (Saccharomyces cerevisiae, UniProt P00330).
T1 construct: purchased Sigma
T1 sequence (P00330 1-348): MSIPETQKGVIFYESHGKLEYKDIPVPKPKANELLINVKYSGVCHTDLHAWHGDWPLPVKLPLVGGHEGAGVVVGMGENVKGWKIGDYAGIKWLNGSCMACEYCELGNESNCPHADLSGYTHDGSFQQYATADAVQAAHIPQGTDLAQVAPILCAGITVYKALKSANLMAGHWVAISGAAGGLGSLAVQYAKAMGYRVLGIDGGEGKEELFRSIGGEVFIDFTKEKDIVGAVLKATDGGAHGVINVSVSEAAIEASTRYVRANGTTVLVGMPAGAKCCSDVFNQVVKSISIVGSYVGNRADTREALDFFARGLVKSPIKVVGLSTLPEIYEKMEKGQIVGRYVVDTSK
The experiment in a line: Effect of NADP concentration on alcohol dehydrogenase activity, OD340 read every minute. To be noted: for OD of samples after subtracting OD at time zero vs. Time / OD of samples vs. Time: ADH 84 U/mL, 2.5% ethanol; for OD of samples vs. Time: OD340. It is filed as biochemical. The protocol:
100% ethanol (EtOH) was purchased from VWR. Buffer used was Triz Base at 0.2 M, pH 8.2.
The concentration of ethanol is 2.5% (v/v). And 0.28 mg/mL ADH, equivalent to 84 U/mL.
Multiple samples were prepared as per Table 1. The assay was performed as follows: • 1. […] Place a quartz cuvette into the spectrophotometer. • 3. At time minus 10 seconds, add 0.1 mL enzyme (2 mg/mL ADH or buffer blank) to the cuvette. • 4. Mix by pipetting. Read OD340 at time zero. • 5. Read OD340 every minute for 5 minutes. 6. Repeat for remaining samples.

With `NC(=O)c1ccc[n+]([C@@H]2O[C@H](COP(=O)([O-])O)[C@@H](O)[C@H]2O)c1` [NMN, Nicotinamide Mononucleotide], in data set [1], the “safety of human consumption” value is reported as “no ill effects” and the “side effects of oral intake” value is listed as “without any detectable undesirable side effects”.
With `NC(=O)c1ccc[n+]([C@@H]2O[C@H](CO)[C@@H](O)[C@H]2O)c1` [NR, Nicotinamide Riboside], in data set [1], the “safety of human consumption” value is reported as “no ill effects” and the “side effects of oral intake” value is listed as “without any detectable undesirable side effects”.
Consider “Nicotinamide Adenine Dinucleotide Phosphate [NADP]”, for which the “OD of samples after subtracting OD at time zero vs. Time” value is 0 in data set [2] (0 min, NADP 8.5 mM final); 0 in data set [2] (0 min, NADP 28 mM final); 0.059 in data set [2] (1 min, NADP 8.5 mM final); 0.087 in data set [2] (2 min, NADP 8.5 mM final); 0.169 in data set [2] (2 min, NADP 28 mM final); 0.098 in data set [2] (3 min, NADP 8.5 mM final). Moreover, the “OD of samples after subtracting OD at time zero vs. Time” value in data set [2] (4 min, NADP 8.5 mM final) amounted to 0.102; in data set [2] (5 min, NADP 28 mM final) it was 0.223. The “OD of samples vs. Time” value in data set [2] (0 min, NADP 8.5 mM final) was 0.003; in data set [2] (0 min, NADP 28 mM final, listed as NADP 3x), 0.749; in data set [2] (0 min, NADP 28 mM final, listed as NADP 3×) it was “around 0.8”; in data set [2] (1 min, NADP 8.5 mM final), 0.062; in data set [2] (1 min, NADP 28 mM final) it was 0.860; in data set [2] (2 min, NADP 8.5 mM final), 0.090. For the same molecule, the “OD of samples vs. Time” value in data set [2] (2 min, NADP 28 mM final) is given as 0.918; in data set [2] (3 min, NADP 28 mM final), 0.948; in data set [2] (4 min, NADP 28 mM final), 0.963; in data set [2] (5 min, NADP 28 mM final), 0.972. For the same molecule, the “velocity of ethanol removal by ADH in the higher NADP mixture compared to the lower NADP mixture” value in data set [2] (28 mM vs 8.4 mM NADP, same conc of ADH) is “about 2 ×”. In addition, in data set [2] (starting at 1 minute, higher vs lower NADP concentration), the “OD at higher NADP concentration compared with the lower NADP concentration” value is listed as “higher ODs at every time point”.
